Results taken from ChEMBL document CHEMBL1155104, “Gallic acid-based indanone derivatives as anticancer agents” (Bioorg Med Chem Lett, 2008).

How the values were obtained:
[1] = Cytotoxicity against human KB403 cells after 24 hrs by MTT assay; type: functional, cell-based; details: KB403, 24 h
MCF7 = test: Cytotoxicity against human MCF7 cells after 24 hrs by MTT assay; type: functional, cell-based; details: MCF7, 24 h
[2] = Toxicity in human erythrocytes assessed as osmotic hemolysis; type: cell-based; details: erythrocyte
HepG2 = test: Cytotoxicity against human HEPG2 cells after 24 hrs by MTT assay; type: functional, cell-based; details: HepG2, 24 h
WRL68 = test: Cytotoxicity against human WRL68 cells after 24 hrs by MTT assay; type: functional, cell-based; details: WRL68, 24 h
Caco-2 = test: Cytotoxicity against human CaCO2 cells after 24 hrs by MTT assay; type: functional, cell-based; details: Caco-2, 24 h
[3] = Toxicity in human erythrocytes assessed as osmotic hemolysis at 258 uM; type: cell-based; details: erythrocyte

Compound	IC50 [1]	IC50 (MCF7)	Activity [2]	IC50 (HepG2)	IC50 (WRL68)	IC50 (Caco-2)	Activity [3]
COc1cc(OC)c(C2CC(=O)c3cc(OC)c(OC)c(OC)c32)c(OC)c1 (centres undefined)	12.9 µM	211 µM	Toxic	1.49 µM	0.022 µM	226 µM	
COc1cc(C2CC(=O)c3cc(OC)c(OC)c(OC)c32)cc(OC)c1OC (centres undefined)	10.3 µM	2.2 µM		9 µM	12.8 µM	≥ 250 µM	Non-toxic
COc1cc([C@@H]2c3cc4c(cc3[C@H](O)[C@H]3COC(=O)[C@H]23)OCO4)cc(OC)c1OC [PODOFILOX]	20.5 µM	8.5 µM		4.8 µM	4.8 µM	0.002 µM	
COc1cccc(C2CC(=O)c3cc(OC)c(OC)c(OC)c32)c1 (centres undefined)	≥ 250 µM	≥ 250 µM		≥ 250 µM	≥ 250 µM	≥ 250 µM	
COc1cc2c(c(OC)c1OC)C(c1ccccc1)CC2=O (centres undefined)	0.84 µM	≥ 250 µM	Toxic	188 µM	≥ 250 µM	≥ 250 µM	
COc1cc(C2C/C(=N\O)c3cc(OC)c(OC)c(OC)c32)cc(OC)c1OC (centres undefined)	136 µM	≥ 250 µM		124 µM	223 µM	49.6 µM	
COc1cc(C2CCc3cc(OC)c(OC)c(OC)c32)cc(OC)c1OC (centres undefined)	≥ 250 µM	≥ 250 µM		89.7 µM	154 µM	115 µM	
COc1cc(C2=C(O)C(=O)c3cc(OC)c(OC)c(OC)c32)cc(OC)c1OC	≥ 250 µM	≥ 250 µM		74.6 µM	124 µM	≥ 250 µM	
COc1cc2c(c(OC)c1OC)-c1c(oc3c(OC)c(OC)c(OC)cc13)C2=O	≥ 250 µM	50 µM		≥ 250 µM	62.5 µM	112 µM	
COc1cc2c(cc1OC)C(c1cc(OC)c(OC)c(OC)c1)CC2=O (centres undefined)	140 µM	≥ 250 µM		112 µM	196 µM	140 µM	
COc1ccc(C2CC(=O)c3cc(OC)c(OC)c(OC)c32)c(OC)c1OC (centres undefined)	1.54 µM	≥ 250 µM	Toxic	≥ 250 µM	0.023 µM	206 µM	
CC(=O)O[C@H]1C(=O)[C@@]2(C)[C@H]([C@H](OC(=O)c3ccccc3)[C@]3(O)C[C@H](OC(=O)[C@H](O)[C@@H](NC(=O)c4ccccc4)c4ccccc4)C(C)=C1C3(C)C)[C@]1(OC(C)=O)CO[C@@H]1C[C@@H]2O [PACLITAXEL]	0.001 µM	0.006 µM		0.009 µM	0.004 µM	0.008 µM	
COc1cc(C2CC(O)c3cc(OC)c(OC)c(OC)c32)cc(OC)c1OC (centres undefined)	192 µM	244 µM		102 µM	192 µM	6.4 µM	
